Assay results published in patent US8986676B2, “MNTF differentiation and growth of stem cells” (Genervon Biopharmaceuticals LLC, priority 2005, dated 2015).
“Also recorded” adds a separate entry of the source. Ends that are not written are not given here.

Key:
mouse ES cells [1] = assay: Differentiation of ES cells in the presence of IR or IGF1-R inhibitor (GFP fluorescence of day 5 embryoid bodies); type: cell-based; settings: for effect of inhibitor on MNTF induced differentiation (GFP fluorescence): HNMPA(AM)3 15 μM or PPP 1 μM, RA/MNTF33 or RA/MNTF10, FIG. 6
IR/IGF1R [pYpY1162/1163] = assay: Autophosphorylation of Insulin/IGF receptor(s), western blot of embryoid bodies; type: cell-based, mouse; settings: for autophosphorylation of IR/IGF-R (pTyr 1162/1163): RA (1 μM) + MNTF 33mer (10 μg/ml), FIG. 3
Procedure: Embryoid bodies (EBs) were exposed to RA (1 μM)+MNTF 33mer (10 μg/ml) or RA (1 μM)+MNTF 33mer (10 μg/ml)+/−HNMPA-(AM)3 (50 nM). Cells were harvested at 0, 15 min, 30 min, 1 h, 2 h and 4 h time points.
The cells were harvested as described previously [Barber, A. J. et al., (2001) J. Biol. Chem. 276, 32814-32821]. Protein concentrations were measured with the Pierce BCA reagent, and all samples were adjusted for equal protein before SDS-polyacrylamide gel electrophoresis.
Cell lysates were immunoblotted with polyclonal antibodies against phosphotyrosines 1162-1163 of IR/IGFR1 following the manufacturer's directions or standard techniques. Protein bands were detected by enhanced chemical fluorescence. Densitometric analysis of enhanced chemical fluorescence immunoblots was performed with ImageQuant (Molecular Dynamics, Sunnyvale, Calif.).

[2] = system: ES cell-derived motor neurons; assay: Survival of ES cell-derived motor neurons in dissociated cultures; type: cell-based, mouse; settings: for enhancement of survival of stem cell derived motor neurons: percentage survivability on day ten, FIG. 4; for maintaining dissociated cultures: dissociated ES-derived motor neuron cultures
Procedure: Mouse embryonic stem (ES) cells were differentiated in the presence of RA and Hg-agonist (Curis, Inc.). On day four, the differentiated embryoid bodies were partially dissociated with 0.05% trypsin or Collagenase and Dispase (1 mg/ml in PBS) and plated on coverslips coated with PLL-Laminin and matrigel.
The dissociated cultures were then treated with GDNF (10 ng/ml), MNTF (all seven forms) at different doses (0.1 μg/ml, 1 μg/ml, 10 μg/ml and 50 μg/ml), and dbcAMP (1 μM), NT3 (10 μg/ml) at day five.
Neurons and their axons were identified by using the fluorescence produced by GFP expressed from the HB9 promoter. Neurite outgrowth can be quantified as described previously [Harper, J. M. et al. (2004) PNAS 101, 7123-7128, incorporated herein by reference] at day six, eight and ten. Percentage survivability was calculated on day ten by counting the total number of cells with existing axons.

[3] = system: motor neuron derived cell lines; settings: compared with MNTF1-F6 33-mer; cited from earlier work
motor neurons = settings: in vivo, compared with MNTF1-F6 33-mer; cited from earlier work
[4] = system: ES cells derived from an HB9-GFP-transgenic mouse; assay: Differentiation of ES cells into motor neurons (eGFP under HB9 promoter in embryoid bodies); type: cell-based; settings: for expression of eGFP under the control of the HB9 promoter (green fluorescence of EBs) compared with RA and Shh agonist: EBs treated with RA (1 μM) and peptide; for differentiation of ES cells into motor neurons: in the presence of RA; for concentration at which elevated fluorescence was detectable (as low as) / concentration at which fluorescence appeared to be optimal: with RA; for concentration at which fluorescence appeared to be optimal: in this experiment
Procedure: ES cells were derived from an HB9-GFP-transgenic mouse and fluoresce green upon adoption of a motoneuron phenotype [Wichterle, H. et al. ([…]) Cell 110, 385-397, incorporated herein by reference]. The mouse ES cells were maintained in a proliferative and undifferentiated state in the presence of murine LIF (Chemicon). The ES cells were cultured on a feeder layer of primary mouse embryonic fibroblasts that were mitomycin treated.
Mouse ES cells were separated from the feeder layer of fibroblasts. This was done by trypsinizing and plating the cell mixture on cell culture flasks coated with 0.1% gelatin. The fibroblasts attached specifically on the gelatin leaving a pure population of floating ES cells. The floating ES cells were collected and resuspended in differentiating medium. This stage was called “d−1”. The ES cells formed embryoid bodies (EBs) and 24 hours later (“d0”) were exposed to RA (1 μM)+MNTF or RA (1 μM)+Shh agonist (1 μM). MNTF peptides (all six forms) were tested at a final concentration range of 0.1 μg/ml-150 μg/ml.
The differentiation assay was carried for six days from “d−1” stage.

mouse ES cells [5] = assay: MNTF induced differentiation in the presence of Shh inhibitor (GFP fluorescence of embryoid bodies); type: cell-based; settings: inhibitor 5 μM, day 5; for effect of inhibitor on MNTF induced differentiation of ES cells: RA + MNTF 33mer at 10 μg/ul; for effect of inhibitor on the GFP fluorescence effect of Shh-Agonist: RA + Shh agonist
Procedure: The ES cells were differentiated as mentioned above and at day 0 they were treated with RA+Shh-Agonist; RA+Shh Agonist+Cyclopamine-KAAD (5 μM); RA+MNTF (33mer at 10 μg/ul); and RA+Cyclopamine-KAAD (5 μM)+MNTF (33mer at 10 μg/ul). The inhibitor was pretreated for an hour before the addition of the other components.
At day 5 of differentiation the embryoid bodies were checked for GFP fluoresence indicating the differentiation of the ES cells into a motor neuron phenotype.
Receptor kinase studies were used to measure the affinity of MNTF for the Insulin Receptor (IR). […] We then tested whether signals through either of these pathways are possible in generating motor neurons. […] Thus, MNTF is still capable of generating post-mitotic mature motor neurons.
FIG. 5 illustrates a comparison of the expression of GFP fluorescence under the control of the motor neuron specific HB9 promoter at day 5 of differentiation in response to control (A), RA (3); RA/Shh (C); cyclopamine-KAAD, RA/Shh (D); RA and MNTF 33mer (E); Cyclopamine-KAAD, RA and MNTF 33mer (F).

[6] = system: anterior horn motor neurons; settings: rat lumbar spinal cord explants; cited from earlier work
surviving motor neurons = settings: axotomized rat peripheral nerves, versus untreated controls; cited from earlier work
spinal cord hemi-section = settings: rats, MNTF1-containing gel sections near nerve graft junctions; cited from earlier work
wobbler mice = settings: MNTF1-containing gel sections implanted at C7-T3 region; cited from earlier work

COc1cc([C@@H]2c3cc4c(cc3[C@H](O)[C@H]3COC(=O)[C@@H]23)OCO4)cc(OC)c1OC [picrodophyllin]
effect of inhibitor on MNTF induced differentiation (GFP fluorescence) (mouse ES cells [1]): does not effectively block the activity of MNTF induced differentiation

CC(=O)OCOC(c1ccc2ccccc2c1)P(=O)(OCOC(C)=O)OCOC(C)=O (stereo not drawn) [HNMPA-(AM)3, Hydroxy-2-naphthalenylmethylphosphonic acid trisacetoxymethyl ester]
effect of IR inhibitor on autophosphorylation of IR/IGF-R in MNTF 33mer treated cells (IR/IGF1R [pYpY1162/1163]; HNMPA-(AM)3 50 nM with RA + MNTF 33mer (10 μg/ml)): reduced autophosphorylation within 15 min | effect of inhibitor on MNTF induced differentiation (GFP fluorescence) (mouse ES cells [1]): blocks the effect of MNTF on mouse ES cells | effect of inhibitor on Shh induced differentiation (GFP fluorescence) (mouse ES cells [1]; HNMPA(AM)3 15 μM, FIG. 6): did not block the activity of Shh induced differentiation

FSRYARCLAEG (Synthetic MNTF peptide analog) [11mer]
enhancement of survival of stem cell derived motor neurons [2]: sufficient to enhance survival of stem cell derived motor neurons

MLSAFSRYARCLAEGHDGPTQ (CWMLSAFSRYARC; Synthetic MNTF peptide sequence) [21mer]
enhancement of survival of stem cell derived motor neurons [2]: sufficient to enhance survival of stem cell derived motor neurons

FSRYAR [6mer]
enhancement of survival of stem cell derived motor neurons [2]: sufficient to enhance survival of stem cell derived motor neurons | proliferation of motor neuron derived cell lines [3]: sufficient to stimulate the proliferation of motor neuron derived cell lines | selective reinnervation of muscle targets by motor neurons (motor neurons): sufficient to direct selective reinnervation of muscle targets

MLSAFSRYAR (Synthetic MNTF peptide analog) [10mer]
expression of eGFP under the control of the HB9 promoter (green fluorescence of EBs) compared with RA and Shh agonist ([4]; FIG. 2): to the same extent or greater than EBs treated with RA and Shh agonist | differentiation of ES cells into motor neurons [4]: effectively substitute for Sonic Hedgehog | differentiation of ES cells into motor neurons ([4]; listed as MNTF 10-mer): capable of inducing differentiation of ES cells into differentiated motor neurons | concentration at which differentiation is stimulated (as low as) ([4]; in vitro, FIG. 2): 0.01 µg/mL | effectiveness at stimulating differentiation of embryonic stem cells into motor neurons compared with MNTF 33mer ([4]; in vitro, FIG. 2): at least as effective the full-length MNTF 33mer | concentration at which elevated fluorescence was detectable (as low as) ([4]; FIG. 2): 0.1 µg/mL | concentration at which fluorescence appeared to be optimal [4]: about 10 μg/ml | maintaining dissociated cultures [2]: effective at maintaining dissociated cultures up to 10 days | enhancement of survival of stem cell derived motor neurons [2]: nearly as effective as the MNTF 33mer

3-keto-N-(aminoethyl-aminocaproyl-dihydrocinnamoyl)cyclopamine [Cyclopamine-KAAD]
effect of inhibitor on MNTF induced differentiation of ES cells (mouse ES cells [5]): did not block MNTF induced differentiation of ES cells | effect of inhibitor on MNTF induced differentiation of ES cells (mouse ES cells [5]; listed as cyclopamine-KAAD): did not block the activity of MNTF induced differentiation | effect of inhibitor on the GFP fluorescence effect of Shh-Agonist (mouse ES cells [5]): blocked the GFP fluoresence effect of Shh-Agonist | effect of inhibitor on the GFP fluorescence effect of Shh-Agonist (mouse ES cells [5]; listed as cyclopamine-KAAD): blocks the effect of Shh on mouse ES cells

WMLSAFS [7mer]
enhancement of survival of stem cell derived motor neurons [2]: sufficient to enhance survival of stem cell derived motor neurons | proliferation of motor neuron derived cell lines [3]: sufficient to stimulate the proliferation of motor neuron derived cell lines

MNTF1: naturally occurring and recombinant motoneuronotrophic factor 1 polypeptides; in b137 the word stands for the synthetic 33-mer (LGTFWGDTLNCWMLSAFSRYARCLAEGHDGPTQ)
survival in vitro of anterior horn motor neurons [6]: selectively enhance the survival | percentage of surviving motor neurons (surviving motor neurons): markedly higher percentage of surviving motor neurons than untreated controls | surviving motor neurons and functional recovery (spinal cord hemi-section): greater numbers of surviving motor neurons, improved recovery of motor and sensory function | progression of symptoms (wobbler mice): delayed the progression of symptoms in wobbler mice

33mer: 33 amino acid MNTF1-F6 sequence (SEQ ID NO:1), synthesized by solid phase synthesis (LGTFWGDTLNCWMLSAFSRYARCLAEGHDGPTQ)
expression of eGFP under the control of the HB9 promoter (green fluorescence of EBs) compared with RA and Shh agonist ([4]; FIG. 2): to the same extent or greater than EBs treated with RA and Shh agonist | differentiation of ES cells into motor neurons [4]: effectively substitute for Sonic Hedgehog | differentiation of ES cells into motor neurons ([4]; listed as 33-mer): induced differentiation of ES cells into motor neurons; also recorded: capable of inducing differentiation of ES cells into differentiated motor neurons | concentration at which elevated fluorescence was detectable (as low as) ([4]; FIG. 2): 0.1 µg/mL | concentration at which fluorescence appeared to be optimal [4]: about 10 μg/ml | autophosphorylation of IR/IGF-R (pTyr 1162/1163) (IR/IGF1R [pYpY1162/1163]): autophosphorylation of IR/IGF-R | autophosphorylation of IR/IGF-R (pTyr 1162/1163) (IR/IGF1R [pYpY1162/1163]; listed as MNTF1 33-mer): associated with autophosphorylation of the insulin receptor (IR) and/or insulin-like growth factor receptor (IGF-R) | maintaining dissociated cultures [2]: effective at maintaining dissociated cultures up to 10 days
